In patent US7034070B2, “Arylalkyl aminofunctional silanes for epoxy laminates” (priority 2002, dated 2006):

Assay: Water solubility test (aqueous solution clarity and stability)
Format: physicochemical
Conditions: for time the solution stayed clear (before turning hazy): 1.0 gram in 100 ml distilled water with 1% glacial acetic acid, ambient temperatures; for time until the slightly hazy solution turned clear: 1.0 gram sample in 100 ml distilled water acidified with 1% glacial acetic acid, stirring
Method: With stirring, 1.0 gram sample from Example 1 was added gradually to 100 ml of distilled water acidified with 1% glacial acetic acid. The solution was slightly hazy at the beginning but turned clear after 45 min. while the commercial product Z-6032 (Dow Coming) under similar conditions turned clear in 20 min.

Molecule	time the solution stayed clear (before turning hazy)	time until the slightly hazy solution turned clear [min]
C=Cc1ccc(CNCCNCCC[Si](OC)(OC)OC)cc1.Cl [Example Z-6032, CH2═CHC6H4CH2NH(CH2)2NH(CH2)3Si(OCH3)3•HCl]	less than 1 week	20
CH3CH2C6H4CH2NH(CH2)2NH(CH2)3Si(OCH3)3•HCl [Example 1]	more than two weeks	45
